Measured values as given in PubChem BioAssay AID1963868 (Molecular Pharmacology Branch, DTP, NCI, 2024).

System: KRAS PDC tumor spheroids (HUVEC+MSC), viability
Test: Anticancer human tumor 254851-301-R-J1-PDC patient-derived colon carcinoma cell line growth inhibition [KRAS2]
Settings: for IC50: curve of first compound; for viability, T/C: stronger effect = lower value
Outline: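 KRAS-mutant tumor cells were grown as spheroids with HUVEC endothelial cells and human MSCs as stroma. Targeted agents were tested alone and with KRAS pathway inhibitors. Doses started at or near clinical Cmax, or 10 microM, descending half-log.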

[1] = second compound 0.1 µM, first compound 0.000316 µM
[2] = second compound 0.1 µM, first compound 0.001 µM
[3] = second compound 0.1 µM, first compound 0.00316 µM
[4] = second compound 0.1 µM, first compound 0.01 µM
[5] = second compound 0.1 µM, first compound 0.0316 µM
[6] = second compound 0.316 µM, first compound 0.000316 µM
[7] = second compound 0.316 µM, first compound 0.001 µM
[8] = second compound 0.316 µM, first compound 0.00316 µM
[9] = second compound 0.316 µM, first compound 0.01 µM
[10] = second compound 0.316 µM, first compound 0.0316 µM
[11] = second compound 1 µM, first compound 0.000316 µM
[12] = second compound 1 µM, first compound 0.001 µM
[13] = second compound 1 µM, first compound 0.00316 µM
[14] = second compound 1 µM, first compound 0.01 µM
[15] = second compound 1 µM, first compound 0.0316 µM
[16] = second compound 3.16 µM, first compound 0.000316 µM
[17] = second compound 3.16 µM, first compound 0.001 µM
[18] = second compound 3.16 µM, first compound 0.00316 µM
[19] = second compound 3.16 µM, first compound 0.01 µM
[20] = second compound 3.16 µM, first compound 0.0316 µM
[21] = second compound 10 µM, first compound 0.000316 µM
[22] = second compound 10 µM, first compound 0.001 µM
[23] = second compound 10 µM, first compound 0.00316 µM
[24] = second compound 10 µM, first compound 0.01 µM
[25] = second compound 10 µM, first compound 0.0316 µM
[26] = second compound 0.1 µM, first compound 0.1 µM
[27] = second compound 0.316 µM, first compound 0.1 µM
[28] = second compound 1 µM, first compound 0.1 µM
[29] = second compound 3.16 µM, first compound 0.1 µM
[30] = second compound 10 µM, first compound 0.1 µM
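Further: spheroids exposed to compounds for seven days before readout.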
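Wherever viability, T/C is given: 100% = DMSO vehicle control luminescence of the spheroids.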

CC(=O)Nc1cccc(-n2c(=O)n(C3CC3)c(=O)c3c(Nc4ccc(I)cc4F)n(C)c(=O)c(C)c32)c1 + CC1OCC2(CCN(c3cnc(Sc4ccnc(N)c4Cl)c(N)n3)CC2)C1N
IC50 (second compound 0.1 µM): 0.00415 µM
IC50 (second compound 0.316 µM): 0.00345 µM
IC50 (second compound 1 µM): 0.00218 µM
IC50 (second compound 3.16 µM): 0.000975 µM
IC50 (second compound 10 µM): 0.000395 µM
viability, T/C (second compound 0.1 µM, first compound 0.0001 µM): 92.1%
viability, T/C [1]: 100%
viability, T/C [2]: 85.7%
viability, T/C [3]: 63%
viability, T/C [4]: 10.8%
viability, T/C [5]: 2.77%
viability, T/C (second compound 0.316 µM, first compound 0.0001 µM): 98.7%
viability, T/C [6]: 82%
viability, T/C [7]: 87.3%
viability, T/C [8]: 53.8%
viability, T/C [9]: 5.84%
viability, T/C [10]: 2.66%
viability, T/C (second compound 1 µM, first compound 0.0001 µM): 80.7%
viability, T/C [11]: 79%
viability, T/C [12]: 75%
viability, T/C [13]: 38%
viability, T/C [14]: 3.61%
viability, T/C [15]: 1.88%
viability, T/C (second compound 3.16 µM, first compound 0.0001 µM): 66.2%
viability, T/C [16]: 74.4%
viability, T/C [17]: 49.4%
viability, T/C [18]: 4.29%
viability, T/C [19]: 2.24%
viability, T/C [20]: 1.57%
viability, T/C (second compound 10 µM, first compound 0.0001 µM): 69.1%
viability, T/C [21]: 59.7%
viability, T/C [22]: 9.76%
viability, T/C [23]: 2.21%
viability, T/C [24]: 1.43%
viability, T/C [25]: 1.76%

CC(C)n1nc(-c2ccc3oc(N)nc3c2)c2c(N)ncnc21 + CC1OCC2(CCN(c3cnc(Sc4ccnc(N)c4Cl)c(N)n3)CC2)C1N
IC50 (second compound 0.1 µM): 0.0175 µM
IC50 (second compound 0.316 µM): 0.0205 µM
IC50 (second compound 1 µM): 0.0186 µM
IC50 (second compound 3.16 µM): 0.0158 µM
IC50 (second compound 10 µM): 0.0113 µM
viability, T/C [1]: 103%
viability, T/C [2]: 98.2%
viability, T/C [3]: 89.3%
viability, T/C [4]: 69.8%
viability, T/C [5]: 29.4%
viability, T/C [26]: 19.9%
viability, T/C [6]: 101%
viability, T/C [7]: 99.7%
viability, T/C [8]: 88.8%
viability, T/C [9]: 75.3%
viability, T/C [10]: 34.4%
viability, T/C [27]: 23.2%
viability, T/C [11]: 87.1%
viability, T/C [12]: 78.5%
viability, T/C [13]: 84.5%
viability, T/C [14]: 64.8%
viability, T/C [15]: 36.8%
viability, T/C [28]: 19.6%
viability, T/C [16]: 74.7%
viability, T/C [17]: 72.5%
viability, T/C [18]: 72.3%
viability, T/C [19]: 63.1%
viability, T/C [20]: 30.2%
viability, T/C [29]: 18.4%
viability, T/C [21]: 65%
viability, T/C [22]: 71.7%
viability, T/C [23]: 66.6%
viability, T/C [24]: 50.9%
viability, T/C [25]: 31.3%
viability, T/C [30]: 18.1%

CC1(C)CCC(CN2CCN(c3ccc(C(=O)NS(=O)(=O)c4ccc(NCC5CCOCC5)c([N+](=O)[O-])c4)c(Oc4cnc5[nH]ccc5c4)c3)CC2)=C(c2ccc(Cl)cc2)C1 + CC1OCC2(CCN(c3cnc(Sc4ccnc(N)c4Cl)c(N)n3)CC2)C1N
IC50 (second compound 0.1 µM): > 10 µM
IC50 (second compound 0.316 µM): > 10 µM
IC50 (second compound 1 µM): > 10 µM
IC50 (second compound 3.16 µM): 5.56 µM
IC50 (second compound 10 µM): 2.51 µM
viability, T/C [5]: 100%
viability, T/C [26]: 104%
viability, T/C (second compound 0.1 µM, first compound 0.316 µM): 96.7%
viability, T/C (second compound 0.1 µM, first compound 1 µM): 100%
viability, T/C (second compound 0.1 µM, first compound 3.16 µM): 97.1%
viability, T/C (second compound 0.1 µM, first compound 10 µM): 98.4%
viability, T/C [10]: 83.8%
viability, T/C [27]: 91%
viability, T/C (second compound 0.316 µM, first compound 0.316 µM): 84.3%
viability, T/C (second compound 0.316 µM, first compound 1 µM): 84.1%
viability, T/C (second compound 0.316 µM, first compound 3.16 µM): 84.3%
viability, T/C (second compound 0.316 µM, first compound 10 µM): 65.7%
viability, T/C [15]: 85.1%
viability, T/C [28]: 89.5%
viability, T/C (second compound 1 µM, first compound 0.316 µM): 78.6%
viability, T/C (second compound 1 µM, first compound 1 µM): 88.6%
viability, T/C (second compound 1 µM, first compound 3.16 µM): 80.7%
viability, T/C (second compound 1 µM, first compound 10 µM): 54%
viability, T/C [20]: 65.3%
viability, T/C [29]: 73.9%
viability, T/C (second compound 3.16 µM, first compound 0.316 µM): 65.3%
viability, T/C (second compound 3.16 µM, first compound 1 µM): 69%
viability, T/C (second compound 3.16 µM, first compound 3.16 µM): 66.3%
viability, T/C (second compound 3.16 µM, first compound 10 µM): 33%
viability, T/C [25]: 64.1%
viability, T/C [30]: 66.1%
viability, T/C (second compound 10 µM, first compound 0.316 µM): 69.8%
viability, T/C (second compound 10 µM, first compound 1 µM): 62.2%
viability, T/C (second compound 10 µM, first compound 3.16 µM): 46.6%
viability, T/C (second compound 10 µM, first compound 10 µM): 3.55%
